Consider eleven compounds from ChEMBL document CHEMBL1201862, “PubChem BioAssay data set” (2004).

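Interpolation was linear, between the two tested concentrations surrounding the appropriate level; five concentrations were tested over 48 hours in 96-well plates. At the GI50, growth is halved.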 Active and inactive are the calls of the source. Rule as the data show it: active = GI50 up to about 1.1 µM and inactive = higher.

Experiment in all cases: NCI-60 cell line screen, 48 h
For assay [1], the system named is CAKI-1.
Assay [2] has as its system EKVX.
For assay [3], the system named is HCT-116.
Assay [4] deals with HT-29.
For assay [5], the system named is LOX IMVI.
The test system of assay [6] is NCI-H226.
Assay [7] has as its system NCI-H23.
Assay [8] has as its system NCI-H522.
The test system of assay [9] is OVCAR-8.
For assay [10], the system named is SN12C.
Assay [11] concerns SNB-19.
For assay [12], the system named is SNB-75.
The test system of assay [13] is SW-620.
The test system of assay [14] is TK-10.
The subject of assay [15] is UACC-257.
Assay [16] deals with UO-31.
Assay [17] deals with HCC 2998.
Assay [18] has as its system HL-60.
In assay [19] the test system is Malme-3M.
Assay [20] deals with SF-539.

Take `O=C(O)C1CCC(=O)N1C(=O)COc1cc(Cl)c(Cl)cc1Cl` (stereo unspecified): the GI50 in assay [1], in assay [2], in assay [3], in [4], in assay [5] and in assay [6] was > 100 µM (inactive) throughout. The GI50 in [7] was > 100 µM (inactive); in [8], > 100 µM (inactive); in assay [9] it was > 100 µM (inactive); in [10], > 100 µM (inactive); in assay [11], > 100 µM (inactive); in assay [12], 40.6 µM (inactive). Besides, the GI50 in [13], in [14], in assay [15] and in assay [16] was > 100 µM (inactive) each time.

Consider `CCOC(=O)C(C(=O)OCC)c1cc(-c2cc3ccccc3o2)oc(=O)c1C#N`, for which the GI50 is 17.4 µM (inactive) in assay [1]; 39.7 µM (inactive) in [2]; 19.5 µM (inactive) in assay [17]; 21.3 µM (inactive) in assay [3]; 29.7 µM (inactive) in [18]; 18.6 µM (inactive) in assay [4]. The GI50 is 17.9 µM (inactive) in [5]; 22.4 µM (inactive) in assay [19]; 21.1 µM (inactive) in assay [6]; 16 µM (inactive) in assay [7]; 21.4 µM (inactive) in assay [9]; 19.3 µM (inactive) in [20]. Besides, the GI50 in assay [10] was 24.4 µM (inactive); in assay [11], 37.3 µM (inactive); in assay [12] it was 26.2 µM (inactive); in [13], 23.1 µM (inactive); in assay [14], 27.3 µM (inactive); in assay [15], 25.6 µM (inactive). Moreover, the GI50 in [16] is 32.2 µM (inactive).

As for `N#Cc1ccccc1NC(=O)C(=O)C(C(=O)c1ccccc1F)C1OC(=O)c2ccccc21` (stereo unspecified), the GI50 in assay [1] was 64.4 µM (inactive); in assay [2], 45.5 µM (inactive); in [17], 19.9 µM (inactive); in [3], 34.2 µM (inactive); in assay [18] it was 20.9 µM (inactive); in [4], 40 µM (inactive). Further, the GI50 was 21.9 µM (inactive) in assay [5]; 18.4 µM (inactive) in [6]; 40.4 µM (inactive) in assay [7]; 21 µM (inactive) in assay [8]; 40.7 µM (inactive) in assay [9]; 24.8 µM (inactive) in assay [20]. The GI50 in assay [10] was 28.2 µM (inactive); in assay [11], 32.4 µM (inactive); in assay [12] it was 38.4 µM (inactive); in assay [13], > 100 µM (inactive); in assay [14], > 100 µM (inactive); in assay [15], 58.2 µM (inactive). In assay [16], the GI50 was 43.8 µM (inactive).

Take `CC(=O)O[C@H]1CC[C@@]2(C)C(=CC[C@@H]3[C@@H]2CC[C@]2(C)C(=O)/C(=C\c4ccccc4)C[C@@H]32)C1`: the GI50 in assay [1] was > 100 µM (inactive); in [2] it was > 100 µM (inactive); in [17], > 100 µM (inactive); in assay [3] it was 96.2 µM (inactive); in assay [4], > 100 µM (inactive); in [5] it was > 100 µM (inactive). Besides, the GI50 in [19] was 89.9 µM (inactive); in assay [6], > 100 µM (inactive); in assay [7], > 100 µM (inactive); in [8], 51.8 µM (inactive); in assay [9], > 100 µM (inactive); in [20] it was > 100 µM (inactive). Moreover, the GI50 in assay [10], in assay [11], in assay [12], in assay [13], in [14] and in assay [15] was > 100 µM (inactive) each time. Further, the GI50 in [16] was > 100 µM (inactive).

Turning to `Clc1ccccc1/C=C/c1cscn1`, the GI50 in [2], in assay [17], in [3], in assay [18], in assay [4] and in [5] was > 100 µM (inactive) in each case. The GI50 in assay [19], in assay [7], in assay [8], in assay [20], in [10] and in assay [11] was > 100 µM (inactive) each time. For the same compound, the GI50 in assay [12] is > 100 µM (inactive); in [14], > 100 µM (inactive); in [15] it was > 100 µM (inactive); in [16] it was 88.1 µM (inactive).

On to `CC(C)=CCC(OC(=O)C=C(C)C)c1cc(O)c2c(c1O)C(=O)C=CC2=O` (stereo unspecified), for which the GI50 in assay [1] was 0.64 µM (active); in assay [2] it was 0.933 µM (active); in assay [17] it was 2.4 µM (inactive); in assay [3], 0.279 µM (active); in assay [18], 0.0419 µM (active); in assay [4], 1.67 µM (inactive). The GI50 was 0.261 µM (active) in [5]; 0.428 µM (active) in assay [19]; 2.97 µM (inactive) in [6]; 0.33 µM (active) in assay [9]; 2.3 µM (inactive) in assay [20]; 1.04 µM (active) in assay [10]. Besides, the GI50 in assay [11] was 7.46 µM (inactive); in [12], 4.98 µM (inactive); in [13], 0.267 µM (active); in [15] it was 0.753 µM (active); in [16], 3.3 µM (inactive).

Regarding `O=C(c1ccccc1)C1C(c2ccccc2)N1S(=O)(=O)c1ccccc1` (stereo unspecified), the GI50 in [1], in assay [2], in [17], in assay [3], in assay [4] and in assay [5] was > 100 µM (inactive) each time. Further, the GI50 in [19], in [6], in assay [7], in assay [8], in assay [9] and in assay [20] was > 100 µM (inactive) each time. Also, the GI50 in assay [10], in [12], in assay [13], in assay [14] and in [16] was > 100 µM (inactive) each time.

For `Nc1nnc2ccc(Cl)cc2[n+]1[O-]`, the GI50 in [1] is > 100 µM (inactive); in assay [2] it was 47.6 µM (inactive); in assay [17], 40.8 µM (inactive); in assay [3] it was 39.7 µM (inactive); in assay [18], 29.3 µM (inactive); in assay [4], 42.4 µM (inactive). The GI50 in assay [5] was 57.5 µM (inactive); in [19], 54 µM (inactive); in assay [6], > 100 µM (inactive); in assay [7], 30.1 µM (inactive); in assay [8] it was 38 µM (inactive); in assay [9] it was 24.9 µM (inactive). In addition, the GI50 in assay [10] is > 100 µM (inactive); in assay [11], > 100 µM (inactive); in [12], > 100 µM (inactive); in [13], 36.5 µM (inactive); in assay [14], > 100 µM (inactive); in assay [15], 94 µM (inactive). Also, in assay [16], the GI50 was > 100 µM (inactive).

For the compound `CC1=CC[C@H](C)C(C)(C)C1/C=C/C(C)=C/CC[C@@]1(CO)[C@H](CCCO)/C(=C(/C)C=O)CC[C@]1(C)O` (stereo partly specified), the GI50 is 3.61 µM (inactive) in [1]; 2.2 µM (inactive) in [2]; 2.31 µM (inactive) in assay [17]; 0.897 µM (active) in assay [18]; 2.77 µM (inactive) in assay [4]; 0.824 µM (active) in assay [5]. Besides, the GI50 in assay [19] was 3.27 µM (inactive); in [6], 1.9 µM (inactive); in [7], 10.2 µM (inactive); in assay [8] it was 4.06 µM (inactive); in assay [9], 15 µM (inactive); in [20] it was 6.78 µM (inactive). The GI50 was 5.68 µM (inactive) in assay [10]; 8.51 µM (inactive) in assay [11]; 2.01 µM (inactive) in [13]; 5.5 µM (inactive) in assay [14]; 15.2 µM (inactive) in [15]; 8.45 µM (inactive) in assay [16].

Turning to `Cc1ccc(C(=O)Nc2ccc(S(=O)(=O)O)c3cc(S(=O)(=O)O)cc(S(=O)(=O)O)c23)cc1N`, the GI50 in assay [1], in assay [2], in assay [17], in [3], in assay [18] and in [4] was > 100 µM (inactive) throughout. Besides, the GI50 in [19], in assay [6], in [7], in assay [8], in [9] and in [20] was > 100 µM (inactive) each time. The GI50 in [10], in assay [11], in assay [12], in assay [13], in [14] and in assay [15] was > 100 µM (inactive) in each case. Further, the GI50 in assay [16] is > 100 µM (inactive).

`Cc1ccc(NC(=O)S(N)(c2ccc(C)cc2)[N+](=O)[O-])cc1` (stereo unspecified): the GI50 in [1] was > 100 µM (inactive); in [17], > 100 µM (inactive); in assay [3], > 100 µM (inactive); in assay [18], 10 µM (inactive); in [4], > 100 µM (inactive); in assay [5] it was > 100 µM (inactive). Also, the GI50 in assay [19], in assay [6], in assay [7], in assay [9], in assay [10] and in assay [11] was > 100 µM (inactive) throughout. In addition, the GI50 was > 100 µM (inactive) in [12]; > 100 µM (inactive) in [13]; > 100 µM (inactive) in [14]; > 100 µM (inactive) in [15]; 75 µM (inactive) in assay [16].
